Data as given in patent US7635572B2, “Methods for conducting assays for enzyme activity on protein microarrays” (Life Technologies Corporation, priority 2004, dated 2009).
Where two headings read alike, the source gives them in different places.

Assays:
Assay in all cases: Further analysis of a plurality of inhibitors and a plurality of kinases on microarray (Example IX, Table 5);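 note: inhibition of each kinase by the inhibitors is given as a qualitative level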;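 for Inhibition level, DAPK2: level 0 no or unclear inhibition to Level 2 substantial inhibition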;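 for Inhibition level, DYRK2: level 0 none or unclear Level 1 marginal Level 2 substantial inhibition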;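 for Inhibition level, FGFR2: level 0 none or unclear then 1 little or marginal then 2 substantial inhibition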;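 for Inhibition level, FYN: level 0 no or unclear inhibition to Level 2 substantial inhibition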;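 for Inhibition level, MAP2K4: level 0 none or unclear Level 1 marginal Level 2 substantial inhibition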;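 for Inhibition level, STK13: level 0 no or unclear inhibition to Level 2 substantial inhibition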
Format in all cases: biochemical
[1] = molecular target: T1, plurality of kinases (Table 5) (Homo sapiens, UniProt Q92630); conditions: plate D11
T1 sequence (Q92630 1-601): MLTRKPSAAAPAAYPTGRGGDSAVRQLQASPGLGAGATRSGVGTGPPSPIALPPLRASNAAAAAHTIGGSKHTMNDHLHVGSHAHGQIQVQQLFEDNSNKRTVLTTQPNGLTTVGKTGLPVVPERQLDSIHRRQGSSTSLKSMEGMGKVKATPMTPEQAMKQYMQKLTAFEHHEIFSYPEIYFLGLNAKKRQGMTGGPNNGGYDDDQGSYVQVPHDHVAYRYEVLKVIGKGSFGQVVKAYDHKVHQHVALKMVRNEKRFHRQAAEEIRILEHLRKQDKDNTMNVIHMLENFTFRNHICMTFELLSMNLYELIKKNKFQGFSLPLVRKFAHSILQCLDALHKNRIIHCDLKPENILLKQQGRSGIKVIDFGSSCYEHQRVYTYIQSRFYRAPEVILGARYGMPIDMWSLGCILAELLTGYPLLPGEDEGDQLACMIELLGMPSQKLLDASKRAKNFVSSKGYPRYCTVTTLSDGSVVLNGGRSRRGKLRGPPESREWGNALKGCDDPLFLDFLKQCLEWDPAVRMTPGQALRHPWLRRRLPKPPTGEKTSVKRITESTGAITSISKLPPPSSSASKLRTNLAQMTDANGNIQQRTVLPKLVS

[2] = molecular target: plurality of kinases (Table 5) (Homo sapiens, UniProt P06241)
[3] = molecular target: plurality of kinases (Table 5) (Homo sapiens, UniProt Q9UIK4); conditions: plate H3
[4] = molecular target: T2, plurality of kinases (Table 5) (Homo sapiens, UniProt Q9UQB9); conditions: plate G11; inhibitor 100 uM
T2 sequence (Q9UQB9 1-309): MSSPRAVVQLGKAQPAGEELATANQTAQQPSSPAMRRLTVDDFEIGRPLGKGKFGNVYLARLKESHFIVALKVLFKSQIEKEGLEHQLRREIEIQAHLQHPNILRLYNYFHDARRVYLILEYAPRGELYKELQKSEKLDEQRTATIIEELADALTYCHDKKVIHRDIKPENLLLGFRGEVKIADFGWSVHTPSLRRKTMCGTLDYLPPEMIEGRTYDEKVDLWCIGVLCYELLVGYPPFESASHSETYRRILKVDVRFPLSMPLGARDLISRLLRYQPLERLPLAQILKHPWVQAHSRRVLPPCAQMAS

[5] = molecular target: plurality of kinases (Table 5) (Homo sapiens, UniProt O75914); conditions: plate D4
[6] = molecular target: plurality of kinases (Table 5) (Homo sapiens, UniProt P21802)
[7] = molecular target: T3, plurality of kinases (Table 5) (Homo sapiens, UniProt Q96KB5); conditions: plate G7
T3 sequence (Q96KB5 1-322): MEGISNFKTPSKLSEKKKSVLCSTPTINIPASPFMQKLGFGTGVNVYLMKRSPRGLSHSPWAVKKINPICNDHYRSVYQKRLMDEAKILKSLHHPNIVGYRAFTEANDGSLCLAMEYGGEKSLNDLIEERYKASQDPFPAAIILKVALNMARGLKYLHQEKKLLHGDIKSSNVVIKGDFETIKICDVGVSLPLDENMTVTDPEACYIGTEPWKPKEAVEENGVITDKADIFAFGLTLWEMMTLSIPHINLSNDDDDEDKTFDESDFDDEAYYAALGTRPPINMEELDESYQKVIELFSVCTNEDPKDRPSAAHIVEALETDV

[8] = molecular target: T4, plurality of kinases (Table 5) (Homo sapiens, UniProt P45985)
T4 sequence (P45985 1-399): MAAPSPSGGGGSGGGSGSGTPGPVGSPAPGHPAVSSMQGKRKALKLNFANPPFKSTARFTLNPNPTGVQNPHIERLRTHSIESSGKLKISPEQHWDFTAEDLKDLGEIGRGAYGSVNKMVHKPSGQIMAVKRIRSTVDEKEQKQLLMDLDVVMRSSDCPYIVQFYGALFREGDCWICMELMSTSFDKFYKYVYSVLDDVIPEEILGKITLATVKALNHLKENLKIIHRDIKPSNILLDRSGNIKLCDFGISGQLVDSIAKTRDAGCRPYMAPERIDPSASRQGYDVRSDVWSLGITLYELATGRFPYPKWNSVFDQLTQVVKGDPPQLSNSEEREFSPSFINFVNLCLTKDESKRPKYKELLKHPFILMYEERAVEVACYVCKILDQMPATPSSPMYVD

[9] = molecular target: plurality of kinases (Table 5) (Homo sapiens, UniProt Q00536); conditions: plate A3; inhibitor 100 uM
[10] = molecular target: plurality of kinases (Table 5) (Homo sapiens, UniProt Q05655); conditions: plate B2
[11] = plate A4, Domain 0, inhibitor 100 uM

Sequence of plurality of kinases (Table 5) (Homo sapiens, UniProt P06241) (P06241 whole entry): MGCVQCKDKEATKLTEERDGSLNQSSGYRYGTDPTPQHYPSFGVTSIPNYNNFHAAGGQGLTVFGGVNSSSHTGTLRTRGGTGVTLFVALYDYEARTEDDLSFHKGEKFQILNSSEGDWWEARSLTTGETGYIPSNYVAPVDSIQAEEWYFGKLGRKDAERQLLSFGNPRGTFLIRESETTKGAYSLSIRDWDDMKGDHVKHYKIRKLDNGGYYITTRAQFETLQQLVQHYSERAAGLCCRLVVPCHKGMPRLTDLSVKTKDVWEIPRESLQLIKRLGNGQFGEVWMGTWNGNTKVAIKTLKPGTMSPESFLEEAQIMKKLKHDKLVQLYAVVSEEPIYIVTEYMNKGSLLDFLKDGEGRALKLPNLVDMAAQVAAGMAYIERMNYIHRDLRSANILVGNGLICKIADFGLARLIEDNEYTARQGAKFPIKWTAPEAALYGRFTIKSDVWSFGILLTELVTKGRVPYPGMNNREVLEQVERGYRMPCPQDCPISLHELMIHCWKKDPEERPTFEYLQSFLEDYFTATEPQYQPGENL
Sequence of plurality of kinases (Table 5) (Homo sapiens, UniProt Q9UIK4) (Q9UIK4 whole entry): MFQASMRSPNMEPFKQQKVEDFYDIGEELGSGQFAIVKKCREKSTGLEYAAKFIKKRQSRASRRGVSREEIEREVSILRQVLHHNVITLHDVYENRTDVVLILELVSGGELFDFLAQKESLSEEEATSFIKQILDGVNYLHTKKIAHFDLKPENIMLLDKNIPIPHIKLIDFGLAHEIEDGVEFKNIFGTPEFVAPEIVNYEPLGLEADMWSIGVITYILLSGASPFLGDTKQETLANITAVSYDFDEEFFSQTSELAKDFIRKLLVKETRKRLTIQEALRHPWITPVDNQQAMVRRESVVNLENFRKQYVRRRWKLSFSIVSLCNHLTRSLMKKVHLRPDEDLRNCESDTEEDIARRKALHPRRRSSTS
Sequence of plurality of kinases (Table 5) (Homo sapiens, UniProt Q00536) (Q00536 whole entry): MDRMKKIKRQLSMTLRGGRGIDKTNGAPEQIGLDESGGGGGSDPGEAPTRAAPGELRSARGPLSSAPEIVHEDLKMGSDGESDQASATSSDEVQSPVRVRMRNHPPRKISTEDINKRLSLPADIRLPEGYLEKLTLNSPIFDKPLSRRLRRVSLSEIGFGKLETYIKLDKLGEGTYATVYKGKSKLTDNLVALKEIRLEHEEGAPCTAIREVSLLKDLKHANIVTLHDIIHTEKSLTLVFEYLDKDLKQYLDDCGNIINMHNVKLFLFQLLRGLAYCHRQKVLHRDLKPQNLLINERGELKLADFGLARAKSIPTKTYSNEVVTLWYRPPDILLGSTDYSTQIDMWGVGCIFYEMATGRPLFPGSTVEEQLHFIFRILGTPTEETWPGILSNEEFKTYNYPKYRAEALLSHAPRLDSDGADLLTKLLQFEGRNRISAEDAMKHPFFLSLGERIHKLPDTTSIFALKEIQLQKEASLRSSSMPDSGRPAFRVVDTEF
Sequence of plurality of kinases (Table 5) (Homo sapiens, UniProt P21802) (P21802 22-821): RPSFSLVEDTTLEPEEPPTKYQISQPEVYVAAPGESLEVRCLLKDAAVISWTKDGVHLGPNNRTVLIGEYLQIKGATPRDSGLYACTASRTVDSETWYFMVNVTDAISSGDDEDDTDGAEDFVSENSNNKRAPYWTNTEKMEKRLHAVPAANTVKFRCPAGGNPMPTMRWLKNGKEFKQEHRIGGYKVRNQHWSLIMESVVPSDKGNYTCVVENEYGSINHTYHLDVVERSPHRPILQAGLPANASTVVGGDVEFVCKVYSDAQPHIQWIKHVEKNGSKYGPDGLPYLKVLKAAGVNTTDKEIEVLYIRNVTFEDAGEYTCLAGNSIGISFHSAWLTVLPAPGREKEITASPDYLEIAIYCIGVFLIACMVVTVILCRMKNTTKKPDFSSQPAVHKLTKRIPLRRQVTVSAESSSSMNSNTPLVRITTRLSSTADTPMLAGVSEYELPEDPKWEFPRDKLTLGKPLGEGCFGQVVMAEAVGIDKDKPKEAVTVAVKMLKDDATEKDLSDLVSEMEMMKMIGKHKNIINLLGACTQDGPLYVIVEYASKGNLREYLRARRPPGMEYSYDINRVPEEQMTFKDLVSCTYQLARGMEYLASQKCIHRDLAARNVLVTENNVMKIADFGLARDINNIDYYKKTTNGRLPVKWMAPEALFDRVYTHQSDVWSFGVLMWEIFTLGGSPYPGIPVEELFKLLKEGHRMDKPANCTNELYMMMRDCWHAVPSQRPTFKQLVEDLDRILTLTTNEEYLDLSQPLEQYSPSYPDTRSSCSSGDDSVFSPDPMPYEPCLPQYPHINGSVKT
Sequence of plurality of kinases (Table 5) (Homo sapiens, UniProt O75914) (O75914 whole entry): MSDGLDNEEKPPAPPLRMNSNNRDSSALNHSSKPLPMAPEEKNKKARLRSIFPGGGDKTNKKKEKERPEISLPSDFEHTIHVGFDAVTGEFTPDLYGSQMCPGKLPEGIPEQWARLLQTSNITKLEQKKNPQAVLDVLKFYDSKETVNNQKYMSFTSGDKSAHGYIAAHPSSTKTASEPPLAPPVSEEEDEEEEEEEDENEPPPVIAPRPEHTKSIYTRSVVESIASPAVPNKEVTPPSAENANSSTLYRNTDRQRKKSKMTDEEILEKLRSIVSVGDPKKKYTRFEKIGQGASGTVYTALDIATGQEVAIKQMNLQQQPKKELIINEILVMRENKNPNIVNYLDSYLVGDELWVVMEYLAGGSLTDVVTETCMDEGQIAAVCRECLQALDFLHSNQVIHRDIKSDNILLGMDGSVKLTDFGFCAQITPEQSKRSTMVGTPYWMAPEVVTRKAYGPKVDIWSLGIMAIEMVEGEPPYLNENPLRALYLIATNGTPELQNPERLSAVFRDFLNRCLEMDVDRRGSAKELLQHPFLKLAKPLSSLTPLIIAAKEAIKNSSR
Sequence of plurality of kinases (Table 5) (Homo sapiens, UniProt Q05655) (Q05655 whole entry): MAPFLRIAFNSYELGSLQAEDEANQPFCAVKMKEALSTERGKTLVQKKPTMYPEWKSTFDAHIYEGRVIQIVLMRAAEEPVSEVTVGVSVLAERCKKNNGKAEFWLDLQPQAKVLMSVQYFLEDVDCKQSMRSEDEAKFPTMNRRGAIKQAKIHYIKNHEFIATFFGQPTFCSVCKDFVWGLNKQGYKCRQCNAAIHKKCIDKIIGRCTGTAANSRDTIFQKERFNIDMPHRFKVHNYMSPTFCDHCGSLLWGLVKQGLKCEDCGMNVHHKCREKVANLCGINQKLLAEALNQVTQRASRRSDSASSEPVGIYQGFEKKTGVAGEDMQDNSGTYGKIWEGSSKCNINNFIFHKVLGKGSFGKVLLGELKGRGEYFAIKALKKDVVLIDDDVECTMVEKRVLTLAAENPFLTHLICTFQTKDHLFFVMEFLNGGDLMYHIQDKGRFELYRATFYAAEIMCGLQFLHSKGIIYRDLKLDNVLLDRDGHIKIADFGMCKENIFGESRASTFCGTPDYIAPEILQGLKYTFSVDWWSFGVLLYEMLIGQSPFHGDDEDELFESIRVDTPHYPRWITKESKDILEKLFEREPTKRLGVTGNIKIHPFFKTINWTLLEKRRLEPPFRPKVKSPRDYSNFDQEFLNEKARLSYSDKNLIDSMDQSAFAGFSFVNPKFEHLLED

SMILES | Inhibition level, DYRK2 ([1]; inhibitor 100 uM) | Inhibition level, FYN [2, 11] | Inhibition level, DAPK2 ([3]; inhibitor 100 uM) | Inhibition level, STK13 [4] | Inhibition level, PAK3 ([5]; inhibitor 100 uM) | Inhibition level, FGFR2 ([6]; plate B4, inhibitor 100 uM) | Inhibition level, FGFR2 ([6]; plate G8, inhibitor 100 uM) | Inhibition level, TOPK ([7]; inhibitor 100 uM) | Inhibition level, MAP2K4 ([8]; plate E6, inhibitor 100 uM) | Inhibition level, PCTK1 [9] | Inhibition level, PRKCD ([10]; inhibitor 100 uM) | also measured
N#C/C(=C/c1ccc(O)c(O)c1)C(=O)NCc1ccccc1 [AG 490] | 2 | 2 | 2 | 2 | 1 | 2 | 2 | 2 | 0 | 0 | 0 | 
COc1cc2ncnc(Nc3cccc(Cl)c3)c2cc1OC [AG 1478] | 2 | 2 | 0 | 1 | 2 | 2 | 2 | 1 | 0 | 0 | 0 | 
O=c1c(-c2ccc(O)cc2)coc2cc(O)cc(O)c12 [Genistein] | 2 | 2 | 2 | 2 | 2 | 2 | 2 | 2 | 2 | 1 | 0 | Inhibition level, DYRK2 ([1]; Genistein, conc. not given): 1; Inhibition level, FYN ([2]; plate A4, Domain 0, Genistein <3.7 mM): 1; Inhibition level, DAPK2 ([3]; Genistein, conc. not given): 0; Inhibition level, PAK3 ([5]; Genistein, conc. not given): 0; Inhibition level, FGFR2 ([6]; plate B4, Genistein, conc. not given): 1; Inhibition level, FGFR2 ([6]; plate G8, Genistein <3.7 mM): 0; Inhibition level, TOPK ([7]; Genistein <3.7 mM): 0; Inhibition level, MAP2K4 ([8]; plate E6, Genistein <3.7 mM): 0; Inhibition level, PRKCD ([10]; Genistein, conc. not given): 0
O=S(=O)(NCCNC/C=C/c1ccc(Br)cc1)c1cccc2cnccc12 [H-89] | 2 | 2 | 2 | 1 | 2 | 2 | 2 | 2 | 1 | 2 | 1 | 
CC(C)(C)n1nc(-c2ccc(Cl)cc2)c2c(N)ncnc21 [PP2] | 2 |  | 2 | 2 | 2 | 2 | 2 | 2 | 2 | 1 | 0 | 
O=c1c(O)c(-c2ccc(O)c(O)c2)oc2cc(O)cc(O)c12 [Quercetin] | 2 |  | 0 | 2 | 2 | 0 | 0 | 0 | 0 | 0 | 0 | 
Cn1cc(C2=C(c3cn(CCCSC(=N)N)c4ccccc34)C(=O)NC2=O)c2ccccc21 [Ro-31-8220] | 2 | 2 | 2 | 2 | 2 | 2 | 2 | 0 | 1 | 0 | 0 | Inhibition level, DYRK2 ([1]; Ro-31-8220, conc. not given): 0; Inhibition level, FYN ([2]; plate A4, Domain 0, Ro-31-8220 90 uM): 0; Inhibition level, DAPK2 ([3]; Ro-31-8220, conc. not given): 2; Inhibition level, PAK3 ([5]; Ro-31-8220, conc. not given): 2; Inhibition level, FGFR2 ([6]; plate B4, Ro-31-8220, conc. not given): 0; Inhibition level, FGFR2 ([6]; plate G8, Ro-31-8220 90 uM): 2; Inhibition level, TOPK ([7]; Ro-31-8220 90 uM): 2; Inhibition level, MAP2K4 ([8]; plate E6, Ro-31-8220 90 uM): 0; Inhibition level, PRKCD ([10]; Ro-31-8220, conc. not given): 2
CC(=O)c1c(O)c(C)c(O)c(Cc2c(O)c3c(c(C(=O)/C=C/c4ccccc4)c2O)OC(C)(C)C=C3)c1O [Rottlerin (Mallotoxin)] | 2 | 2 | 1 | 1 | 0 | 0 | 2 | 2 | 1 | 0 | 0 | 
CN[C@@H]1C[C@H]2O[C@@](C)([C@@H]1OC)n1c3ccccc3c3c4c(c5c6ccccc6n2c5c31)C(=O)NC4 [Staurosporine] |  |  |  |  |  |  |  |  |  |  |  | Inhibition level, FYN [2]: 2; Inhibition level, DAPK2 ([3]; Staurosporine, conc. not given): 2; Inhibition level, TOPK ([7]; Staurosporine 21.5 uM): 2; Inhibition level, MAP2K4 [8]: 0
